Assay results reported in patent US20240033321A1, “PULSATIVE GNRH ADMINISTRATION FOR TREATING FOOD INTAKE RELATED DISORDERS” (INSTITUT NATIONAL DE LA SANTÉ ET DE LA RECHERCHE MÉDICALE, priority 2020, published 2024).

Legend:
[1] = Pulsatile Lutrelef delivery by minipump in Gnrh::Cre; iBot sensitive (overweight) female mice; type: in vivo; details: sensitive females
[2] = Pulsatile Lutrelef delivery by minipump in a Gnrh::Cre; iBot sensitive (overlean) male mouse; type: in vivo, mice; details: one sensitive male (n=1), one pulse every 3 h
[3] = Pulsatile Lutrelef infusion by subcutaneous programmable mini-pump in obese and lean mice, food intake followed daily; type: in vivo; details: 14 days
Protocol: Adult lean and obese male mice were housed under specific pathogen-free conditions in a temperature-controlled room (21-22° C.) with a 12 h light/dark cycle. Animals were provided with ad libitum access to food and water. The body weight of the animals and their food intake were followed on a daily base. Animal studies were approved by the Institutional Ethics Committee for the Care and Use of Experimental Animals of the University of Lille; all experiments were performed in accordance with the guidelines for animal use specified by the European Union Council Directive of Sep. 22, 2010 (2010/63/EU). […] To restore a control/lean pattern of GnRH/LH release in obese mice, we next implanted subcutaneous programmable mini-pumps that delivered either Lutrelef (0.25 μg of GnRH per pulse over 10 min given every 3 h) or vehicle to the mice (i.e., the pattern of secretion found in lean mice). Lutrelef is a native GnRH peptide that is clinically used to successfully treat hypogonadotropic infertility (23,24). The regimen was given for 14-days, during which body weight and food intake were followed daily.

SMILES: CC(C)C[C@H](NC(=O)CNC(=O)[C@H](Cc1ccc(O)cc1)NC(=O)[C@H](CO)NC(=O)[C@H](Cc1c[nH]c2ccccc12)NC(=O)[C@H](Cc1cnc[nH]1)NC(=O)[C@@H]1CCC(=O)N1)C(=O)N[C@@H](CCCNC(=N)N)C(=O)N1CCC[C@H]1C(=O)NCC(N)=O [Lutrelef]
- substrate use from RER data ([1]; dark phase (feeding period) (FIG. 10B)): restores the use of carbohydrates during the dark phase
- bodyweight ([1]; one pulse every 2 h, 15 days (FIG. 10A)): decreased body weight
- respiratory exchange ratio (RER) ([1]; one pulse every 2 h, 15 days (FIGS. 10B, 10C)): normalised
- food intake ([1]; one pulse every 2 h, 15 days (FIGS. 10D, 10E)): normalised
- bodyweight ([2]; 15 days (FIG. 11A)): fully rescues bodyweight
- increase in food intake ([2]; 15 days (FIGS. 11B, 11C)): 15%
- amount of food eaten ([3]; lean mice, same pulsatile regimen, compared with vehicle-infused littermates (FIG. 9)): no observable effect
- cumulative food intake ([3]; obese male mice, 0.25 μg of GnRH per pulse over 10 min every 3 h, compared with lean mice (FIG. 9)): normalised their cumulative food intake to levels comparable with lean mice
